# Results from patent publication US8445474B2 (Knopp Neurosciences, Inc., priority 2006, dated 2013).
# Where two headings read alike, the source gives them in different places.
# Tests used:
# monkeys = settings: single oral dose; cited from earlier work
# rodents [1] = system: rodents
# in vivo = settings: male, beagle, dog
# Procedure: (§1) Doses were administered orally by gavage and clinical observations were taken continuously following dosing: hourly for the first four hours, and then twice daily cage-side observations for the duration of the inter-dose or post-dose interval. Observations were made of clinical signs, mortality, injury and availability of food and water. Animals were fasted for 24 hr prior to dosing. Dogs in each group were exposed to only one drug, or the combination; each dose was administered only once, with a subsequent dose administered after a recovery period of 4 days.
# human subjects = settings: cited from earlier work
# [2] = Dissolution of exploratory combination capsules in simulated gastric fluid (SGF), chiral HPLC; type: physicochemical; settings: for Average Concentrations of the enantiomer, Experiments SGF (1) and SGF (2) / Concentration of the enantiomer in SGF (1) Vessel / Concentration of the enantiomer in SGF (2) Vessel: combination capsule in 10 mL SGF pH 1.2
# Procedure: Drug Formulation. […] Normal phase, chiral HPLC was used for monitoring the release of R(+) pramipexole and S(−) pramipexole in simulated gastric fluid (SGF).
# Dissolution Study. SGF (pH=1.2) was prepared by diluting 1 g of sodium chloride and 7 mL of concentrated HCl to 1 L with HPLC grade water. The dissolution experiment was run as follows: an exploratory combination capsule was placed in 10 mL of SGF and shaken under ambient conditions at 600 RPM for 60 minutes. Aliquots of 100 μL were pulled from the same sample vessel at various time points. The 100 μL samples of SGF solution were evaporated using a nitrogen bleed and heat and the residues were dissolved in the HPLC diluent and filtered through 0.45 μm syringe filters. […] This experiment was performed in duplicate (experiment numbers SGF (1) (see Table 4) and SGF (2) (see Table 5)) and the results are also provided in average values (see Table 6). The tables and figures below summarize the results from these experiments.
# [3] = target: human cloned dopamine receptor D5 (Homo sapiens, UniProt P21918); settings: historic data; cited from earlier work
# dogs = settings: single oral dose, and above; cited from earlier work
# rodents [4] = settings: single oral dose, and above; cited from earlier work
# [5] = male, beagle, dog, in vivo, 1 study day
# [6] = male, beagle, dog, in vivo, 8 study day
# [7] = non-naïve male beagle dogs, single oral dose
# [8] = 4320 minutes, stored benchtop in clear vial
# Procedure for male beagle dogs: as §1
# Sequence of human cloned dopamine receptor D5 (P21918 whole entry): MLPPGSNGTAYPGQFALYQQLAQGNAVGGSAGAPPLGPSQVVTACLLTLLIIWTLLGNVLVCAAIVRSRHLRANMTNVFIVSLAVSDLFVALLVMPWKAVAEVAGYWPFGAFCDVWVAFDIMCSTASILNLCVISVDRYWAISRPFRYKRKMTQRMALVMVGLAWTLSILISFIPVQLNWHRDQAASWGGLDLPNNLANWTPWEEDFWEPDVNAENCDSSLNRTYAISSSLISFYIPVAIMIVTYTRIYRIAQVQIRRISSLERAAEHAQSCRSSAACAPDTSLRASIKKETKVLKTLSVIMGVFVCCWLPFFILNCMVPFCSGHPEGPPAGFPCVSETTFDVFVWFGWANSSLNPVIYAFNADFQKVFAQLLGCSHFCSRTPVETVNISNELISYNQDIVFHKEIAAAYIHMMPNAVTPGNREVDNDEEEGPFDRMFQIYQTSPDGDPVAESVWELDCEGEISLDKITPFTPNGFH
smiles,measurement,setting,value
CCCN[C@H]1CCc2nc(N)sc2C1 [S(−) pramipexole],human dose equivalent to dog MTD,male beagle dogs; 70 kg individual,0.30 mg
same,human dose equivalent to dog NOAEL,male beagle dogs; 70 kg individual,0.05 mg
same,human dose equivalent to dog NOAEL,male beagle dogs; human equivalent,0.7 µg/kg
same,Feces mucoid (animals affected/total),"male beagle dogs; male, beagle, dog, in vivo",0/4
same,Feces soft (animals affected/total),"male beagle dogs; male, beagle, dog, in vivo",0/4
same,Feces watery (animals affected/total),"male beagle dogs; male, beagle, dog, in vivo",0/4
same,Lacrimation (animals affected/total),"male beagle dogs; male, beagle, dog, in vivo",0/4
same,Pupils dilated (animals affected/total),"male beagle dogs; male, beagle, dog, in vivo",0/4
same,Skin warm to touch (animals affected/total),"male beagle dogs; male, beagle, dog, in vivo",0/4
same,Activity decreased (animals affected/total),male beagle dogs; [5],3/4
same,Convulsions-clonic (animals affected/total),male beagle dogs; [5],0/4
same,Emesis (animals affected/total),male beagle dogs; [5],3/4
same,Salivation (animals affected/total),male beagle dogs; [5],0/4
same,Tremors (animals affected/total),male beagle dogs; [5],1/4
same,Activity decreased (animals affected/total),male beagle dogs; [6],0/4
same,Emesis (animals affected/total),male beagle dogs; [6],0/4
same,Tremors (animals affected/total),male beagle dogs; [6],0/4
same,MTD,male beagle dogs; [7],7.5 µg/kg
same,NOAEL,male beagle dogs; [7],1.25 µg/kg
same,dose at which major excitation was displayed,monkeys,3500 µg/kg
same,human dose equivalent to rodent lethal dose,rodents [1]; human equivalent,7000 to 12000 µg/kg
same,human dose equivalent to rodent lethal dose,"rodents [1]; rodents, in vivo",500 to 850 mg
same,MTD at 4 days,in vivo,4.2 µg/kg
same,dose shown to cause somnolence,human subjects,1.5 mg
same,"initial, single doses not tolerated",human subjects,greater than 0.20 milligrams
same,"Average Concentrations of the enantiomer, Experiments SGF (1) and SGF (2)",[2]; 3 minutes,0 mg/mL
same,Concentration of the enantiomer in SGF (1) Vessel,[2]; 3 minutes,0 ng/mL
same,Concentration of the enantiomer in SGF (2) Vessel,[2]; 3 minutes,0 ng/mL
same,"Average Concentrations of the enantiomer, Experiments SGF (1) and SGF (2)",[2]; 4 minutes,0 mg/mL
same,Concentration of the enantiomer in SGF (1) Vessel,[2]; 4 minutes,0 ng/mL
same,Concentration of the enantiomer in SGF (2) Vessel,[2]; 4 minutes,0 ng/mL
same,"Average Concentrations of the enantiomer, Experiments SGF (1) and SGF (2)",[2]; 6 minutes,0 mg/mL
same,Concentration of the enantiomer in SGF (1) Vessel,[2]; 6 minutes,0 ng/mL
same,Concentration of the enantiomer in SGF (2) Vessel,[2]; 6 minutes,0 ng/mL
same,"Average Concentrations of the enantiomer, Experiments SGF (1) and SGF (2)",[2]; 8 minutes,0 mg/mL
same,Concentration of the enantiomer in SGF (1) Vessel,[2]; 8 minutes,0 ng/mL
same,Concentration of the enantiomer in SGF (2) Vessel,[2]; 8 minutes,0 ng/mL
same,"Average Concentrations of the enantiomer, Experiments SGF (1) and SGF (2)",[2]; 10 minutes,0.003489 mg/mL
same,Concentration of the enantiomer in SGF (1) Vessel,[2]; 10 minutes,6978 ng/mL
same,Concentration of the enantiomer in SGF (2) Vessel,[2]; 10 minutes,0 ng/mL
same,"Average Concentrations of the enantiomer, Experiments SGF (1) and SGF (2)",[2]; 11 minutes,0.00738 mg/mL
same,Concentration of the enantiomer in SGF (1) Vessel,[2]; 11 minutes,8956 ng/mL
same,Concentration of the enantiomer in SGF (2) Vessel,[2]; 11 minutes,5803 ng/mL
same,"Average Concentrations of the enantiomer, Experiments SGF (1) and SGF (2)",[2]; 12 minutes,0.009645 mg/mL
same,Concentration of the enantiomer in SGF (1) Vessel,[2]; 12 minutes,10830 ng/mL
same,Concentration of the enantiomer in SGF (2) Vessel,[2]; 12 minutes,8460 ng/mL
same,"Average Concentrations of the enantiomer, Experiments SGF (1) and SGF (2)",[2]; 14 minutes,0.015 mg/mL
same,Concentration of the enantiomer in SGF (1) Vessel,[2]; 14 minutes,15340 ng/mL
same,Concentration of the enantiomer in SGF (2) Vessel,[2]; 14 minutes,14660 ng/mL
same,"Average Concentrations of the enantiomer, Experiments SGF (1) and SGF (2)",[2]; 15 minutes,0.01769 mg/mL
same,Concentration of the enantiomer in SGF (1) Vessel,[2]; 15 minutes,17690 ng/mL
same,Concentration of the enantiomer in SGF (2) Vessel,[2]; 15 minutes,17700 ng/mL
same,"Average Concentrations of the enantiomer, Experiments SGF (1) and SGF (2)",[2]; 17 minutes,0.02176 mg/mL
same,Concentration of the enantiomer in SGF (1) Vessel,[2]; 17 minutes,21570 ng/mL
same,Concentration of the enantiomer in SGF (2) Vessel,[2]; 17 minutes,21960 ng/mL
same,"Average Concentrations of the enantiomer, Experiments SGF (1) and SGF (2)",[2]; 18 minutes,0.02294 mg/mL
same,Concentration of the enantiomer in SGF (1) Vessel,[2]; 18 minutes,22230 ng/mL
same,Concentration of the enantiomer in SGF (2) Vessel,[2]; 18 minutes,23650 ng/mL
same,"Average Concentrations of the enantiomer, Experiments SGF (1) and SGF (2)",[2]; 20 minutes,0.028 mg/mL
same,Concentration of the enantiomer in SGF (1) Vessel,[2]; 20 minutes,27330 ng/mL
same,Concentration of the enantiomer in SGF (2) Vessel,[2]; 20 minutes,28670 ng/mL
same,"Average Concentrations of the enantiomer, Experiments SGF (1) and SGF (2)",[2]; 25 minutes,0.03742 mg/mL
same,Concentration of the enantiomer in SGF (1) Vessel,[2]; 25 minutes,37640 ng/mL
same,Concentration of the enantiomer in SGF (2) Vessel,[2]; 25 minutes,37210 ng/mL
same,"Average Concentrations of the enantiomer, Experiments SGF (1) and SGF (2)",[2]; 30 minutes,0.04566 mg/mL
same,Concentration of the enantiomer in SGF (1) Vessel,[2]; 30 minutes,48900 ng/mL
same,Concentration of the enantiomer in SGF (2) Vessel,[2]; 30 minutes,42420 ng/mL
same,"Average Concentrations of the enantiomer, Experiments SGF (1) and SGF (2)",[2]; 60 minutes,0.05654 mg/mL
same,Concentration of the enantiomer in SGF (1) Vessel,[2]; 60 minutes,51970 ng/mL
same,Concentration of the enantiomer in SGF (2) Vessel,[2]; 60 minutes,61100 ng/mL
same,"Average Concentrations of the enantiomer, Experiments SGF (1) and SGF (2)",[2]; [8],0.09309 mg/mL
same,Concentration of the enantiomer in SGF (1) Vessel,[2]; [8],93670 ng/mL
same,Concentration of the enantiomer in SGF (2) Vessel,[2]; [8],92500 ng/mL
same,course of release from the capsule,"[2]; SGF pH 1.2, 60 minutes",did not go to completion after one hour
same,Ki,[3],> 50 µM
same,dose at which vomiting occurred,dogs,≥ 0.7 µg/kg
same,doses at which deaths occurred,rodents [4],70000 to 105000 µg/kg
